Reference: patent US5329012A, “Bis(acyloxmethyl)imidazole compounds” (The Research Foundation of State University of New York, priority 1987, dated 1994)
Several values for one entry are separate records, joined by “and”; a condition that tells them apart may be missing. Equal values may be shown once. Read-outs that look alike come from different tables or passages of the source.

Experiments:
[1] = system: LOX (amelanotic melanoma) human tumor xenograft; assay: LOX human amelanotic melanoma xenograft, survival evaluation; type: in vivo, human tumor in female athymic (nude) mice; details: single dose
Protocol: (§1) Tumor cells were inoculated ip(intraperitonal) into female, athymic, mice, being either MX-1 (mammary) or LOX (amelanotic melanoma) human tumor xenograph models. The human xenograft tumors were formed by heterotransplantation of surgically removed human tumors into the subrenal capsule of the nude mice. […] The hydrochloride salts of the compounds, designated H, K, and L, and the free base of H, as identified on Table I were administered to the viable human xenograft tumors by a single dose subcutaneous renal cavity (MX-1) injection or interperitonal (LOX) injection to the nude mice test animal in a suspension of 0.9% aqueous sodium chloride solution with "tween-80" and distilled water. The tested compounds were tested against a known cancer tumor inhibiting compound (control) 2,3-dihydro-5-(3'-4'-dichloropheny1)-6,7-bis(n-propylcarbanoxymethylcarbonate)-1H-pyrollizine.
(§2) In both the MX-1 and LOX model, results were expressed as a percentage of the test animal evaluation (T) compared to that for the control (C) and was reported as %T/C. These values are based on all mice in the test.
In the LOX model %T/C was evaluated by survival, meaning that the mean survival time of mice of the control group surviving (C) is compared to the mean survival time of mice who survived the test with treatment (T).
(§3) The data presented comprises findings at optimal dosages of particularly effective compounds of the invention as compared to the control.

[2] = system: MX-1 (mammary) human tumor xenograft; assay: MX-1 human mammary tumor xenograft (subrenal capsule), tumor weight evaluation; type: in vivo, human tumor in female athymic (nude) mice; details: single dose
Protocol: as §1, §2
In the MX-1 model %T/C was evaluated from an estimate of tumor weight in untreated mice as compared to an estimate of tumor weight in treated mice. In such tumor weight evaluation, a low %T/C indicates effective treatment as the tumors of the treated mice are smaller than tumors of the untreated control mice.
as §3

[3] = hygroscopicity of the hydrochloride salt (observation); type: physicochemical; details: crystalline hydrochloride salt
Protocol: A solution of the 1-n-propyl-2-methylthio-4,5-bis(N-methyl carbonyloxymethyl)imidazole prepared in Example XVI (1.72 g; 5.21 mmol) in anhydrous dichloromethane (50 mL) was stirred at 0°-5° C. while anhydrous hydrogen chloride gas was bubbled into the solution for 5 minutes through a gas dispersion tube. […] The residue was dried in vacuo for 10 minutes and dissolved in anhydrous dichloromethane (40 mL). The solution was reduced in volume to 10 mL to induce crystallization. Once crystallization had begun, methylene chloride (20 mL) was added and the cold (0° C.) solution was triturated for 10 minutes.

[4] = system: lymphocytic leukemia P-388; assay: P-388 lymphocytic leukemia test in mice (NCI Protocol 1.200); type: in vivo, CDF1 female mice; details: for Tox.Day Surv. (survivors/animals tested): day 5
Protocol: Various bis(acyloxymethyl)imidazole derivatives prepared in accord with Examples I-XVIII and designated Samples A-J, were tested for anti-tumor activity in vivo using the lymphocytic leukemia P-388 test procedure in mice with Samples A and B representing controls. The test system was that employed by the National Cancer Institute (NCI) for the preliminary screening of anti-tumor agents, according to Protocol 1.200 (Cancer Chemo. Reports Part 3, Vol. 3, No. 2, page 9; 1972). In the study ascitic fluid containing 6×10^6 cells was implanted in the peritoneal cavity of CDF1 female mice. Each imidazole was given in a single injection, at four to six different dose levels (5-6 mice/dose level) daily for five (5) days beginning 24 hours after tumor innoculation. The control animals received saline. Test criteria was in accord with NCI protocol as follows: toxicity day evaluations were carried out on day 5 (number of survivors/number of animals tested); % T/C data was calculated through mean survival time [% T/C=(MST treated/MST control)x100, where MST=mean survival time]; BWD refers to the body weight difference (grams) of test animals compared to control animals; KE refers to the log of the tumor cell population at the end of treatment relative to tumor cell population before treatment.
Table I sets out the identification of the compounds corresponding to the samples used in this and further Examples. Table II sets out the results of the P-388 tests.

[5] = optimal dosage 240 mg/kg, hydrochloride salt
[6] = 12.5 mg/kg/inj, daily for 5 days
[7] = 100 mg/kg/inj, daily for 5 days
[8] = 200 mg/kg/inj, daily for 5 days
[9] = 400 mg/kg/inj, daily for 5 days
[10] = Mus musculus, P388, 120 h, 12.5 mg/kg/inj, daily for 5 days, read-out: % T/C (mean survival time)
[11] = Mus musculus, P388, 120 h, 25 mg/kg/inj, daily for 5 days, read-out: % T/C (mean survival time)
[12] = Mus musculus, P388, 120 h, 50 mg/kg/inj, daily for 5 days, read-out: % T/C (mean survival time)
[13] = Mus musculus, P388, 120 h, 100 mg/kg/inj, daily for 5 days, read-out: % T/C (mean survival time)
[14] = Mus musculus, P388, 120 h, 200 mg/kg/inj, daily for 5 days, read-out: % T/C (mean survival time)
[15] = Mus musculus, P388, 120 h, 400 mg/kg/inj, daily for 5 days, read-out: % T/C (mean survival time)
[16] = optimal dosage 135 mg/kg, hydrochloride salt
[17] = optimal dosage 100 mg/kg, free base, listed as H (Free base)
[18] = optimal dosage 115 mg/kg, hydrochloride salt
[19] = 6.25 mg/kg/inj, daily for 5 days
[20] = Mus musculus, P388, 120 h, read-out: % T/C (mean survival time)
[21] = optimal dosage 200 mg/kg, free base

SMILES | BWD (body weight difference vs control) [4, 6] [g] | KE (log tumor cell population end vs before treatment) [4, 6] | BWD (body weight difference vs control) ([4]; 25 mg/kg/inj, daily for 5 days) [g] | KE (log tumor cell population end vs before treatment) ([4]; 25 mg/kg/inj, daily for 5 days) | BWD (body weight difference vs control) ([4]; 50 mg/kg/inj, daily for 5 days) [g] | KE (log tumor cell population end vs before treatment) ([4]; 50 mg/kg/inj, daily for 5 days) | BWD (body weight difference vs control) [4, 7] [g] | KE (log tumor cell population end vs before treatment) [4, 7] | BWD (body weight difference vs control) [4, 8] [g] | KE (log tumor cell population end vs before treatment) [4, 8] | BWD (body weight difference vs control) [4, 9] [g] | KE (log tumor cell population end vs before treatment) [4, 9] | response vs control in vivo at 12.5 mg/kg [4, 10] [%] | response vs control in vivo at 25 mg/kg [4, 11] [%] | response vs control in vivo at 50 mg/kg [4, 12] [%] | response vs control in vivo at 100 mg/kg [4, 13] [%] | response vs control in vivo at 200 mg/kg [4, 14] [%] | response vs control in vivo at 400 mg/kg [4, 15] [%] | other results
CCCn1c(SC)nc(COC(=O)NC)c1COC(=O)NC [K, 1-n-propyl-2-methylthio-4,5-bis-(N-methylcarbonyloxymethyl)imidazole] |  |  |  |  |  |  |  |  |  |  |  |  |  |  |  |  |  |  | LOX % T/C Survl. [1, 5]: 191%; LOX Cures [1, 5]: 1/6; MX-1 Cures [2, 5]: 6/6; hygroscopicity [3]: slightly hygroscopic
CSc1nc(COC(=O)NC(C)C)c(COC(=O)NC(C)C)n1Cc1ccccc1 [F, 1-benzyl-2-methylthio-4,5-bis-[N-(2-propyl)carbonyloxymethyl)imidazole] | -0.2 | -1.64 | -1.5 | -1.59 | -0.5 | -0.42 | -0.3 | -0.39 | -2.2 | -0.32 | -3.2 | toxic | 98 | 101 | 110 | 111 | 116 |  | 
COc1nc(COC(=O)NC(C)C)c(COC(=O)NC(C)C)n1C [J, 1-methyl-2-methoxy-4,5-bis-[N-(2-propyl)carbonyloxymethyl)imidazole] |  |  | -0.1 | -0.60 | -1.0 | 0.54 | -2.1 | 1.87 | -2.6 | 3.41 | -4.2 | 3.88 |  | 130 | 147 | 166 | 189 | 196 | 
CCCCCCn1c(SC)nc(COC(=O)NC)c1COC(=O)NC [L, 1-n-hexyl-2-methylthio-4,5-bis-(N-methylcarbonyloxymethyl)imidazole] |  |  |  |  |  |  |  |  |  |  |  |  |  |  |  |  |  |  | LOX % T/C Survl. [1, 16]: 208%; LOX Cures [1, 16]: 1/6; MX-1 Cures ([2]; optimal dosage 270 mg/kg, hydrochloride salt): 6/6
CNC(=O)OCc1nc(SC)n(C)c1COC(=O)NC [H, 1-methyl-2-methylthio-4,5-bis-(N-methylcarbonyloxymethyl)imidazole] | -1.2 | 1.05 | -1.4 | 1.05 | -2.6 | 4.21 | -4.1 | 6.75 |  |  |  |  |  |  |  |  |  |  | LOX % T/C Survl. [1, 17]: 365% and 233%; LOX Cures [1, 17]: 5/6 and 2/6; LOX % T/C Survl. [1, 18]: 234%; LOX Cures [1, 18]: 2/6; BWD (body weight difference vs control) [4, 19]: -0.7 g; KE (log tumor cell population end vs before treatment) [4, 19]: -0.83; Tox.Day Surv. (survivors/animals tested) [4, 19]: 5/6; Tox.Day Surv. (survivors/animals tested) [4, 6]: 6/6; Tox.Day Surv. (survivors/animals tested) ([4]; 25 mg/kg/inj, daily for 5 days): 6/6; Tox.Day Surv. (survivors/animals tested) ([4]; 50 mg/kg/inj, daily for 5 days): 6/6; Tox.Day Surv. (survivors/animals tested) [4, 7]: 6/6; response vs control in vivo at 6.25 mg/kg [4, 20]: 125%; response vs control in vivo at 12.5 mg/kg [4, 20]: 147%; response vs control in vivo at 25 mg/kg [4, 20]: 147%; response vs control in vivo at 50 mg/kg [4, 20]: 184%; response vs control in vivo at 100 mg/kg [4, 20]: 236%; MX-1 % T/C wt. ([2]; optimal dosage 100 mg/kg, free base): -73%; MX-1 % T/C wt. [2, 18]: -63%; MX-1 % T/C wt. [2, 21]: -56%; MX-1 Cures [2, 21]: 2/6
CSc1nc(COC(=O)NC(C)C)c(COC(=O)NC(C)C)n1C [I, 1-methyl-2-methylthio-4,5-bis-[N-(2-propyl)carbonyloxymethyl)imidazole] | 2.6 | -1.40 | 0.4 | -0.91 | 0.0 | -0.56 | -1.2 | 1.89 | -1.8 | 4.21 | -3.4 | toxic | 113 | 125 | 130 | 163 | 184 | 70 | 
